Assay results: US9447100B2, “Substituted pyrazolo[1,5-A] pyrimidines as calcium receptor modulating agents” (Takeda Pharmaceutical Company Limited, priority 2002, dated 2016)
Structures can show the parent of a compound that is named as a salt.

CCC(CC)(NC(=O)c1c(C)nn2c1NC(c1ccc(OC)cc1)CC2(C)C)c1ccc(C)cc1 (stereo not drawn) (as salt: HCl) [Example 967, N-(1-ethyl-1-(4-methylphenyl)propyl)-5-(4-methoxyphenyl)-2,7,7-trimethyl-4,5,6,7-tetrahydropyrazolo[1,5-a]pyrimidine-3-carboxamide] and CCC(CC)(NC(=O)c1c(C)nn2c1NC(c1ccc(C)cc1)CC2(C)C)c1ccc(C)cc1 (stereo not drawn) (as salt: HCl) [Example 973, N-(1-ethyl-1-(4-methylphenyl)propyl)-2,7,7-trimethyl-5-(4-methylphenyl)-4,5,6,7-tetrahydropyrazolo[1,5-a]pyrimidine-3-carboxamide] cannot be ordered by melting point: 153 to 154 °C for the first, 152 to 154 °C for the second.

CCC(CC)(NC(=O)c1c(C)nn2c1NC(c1ccccc1Cl)CC2(C)C)c1ccc(C)cc1 (stereo not drawn) (as salt: HCl) [Example 968, 5-(2-chlorophenyl)-N-(1-ethyl-1-(4-methylphenyl)propyl)-2,7,7-trimethyl-4,5,6,7-tetrahydropyrazolo[1,5-a]pyrimidine-3-carboxamide] and CCC(CC)(NC(=O)c1c(C)nn2c1N[C@H](c1ccccc1Cl)CC2(C)C)c1ccc(C)cc1 (as salt: HCl) [Example 1090, (5S)-5-(2-chlorophenyl)-N-(1-ethyl-1-(4-methylphenyl)propyl)-2,7,7-trimethyl-4,5,6,7-tetrahydropyrazolo[1,5-a]pyrimidine-3-carboxamide] fall in the same range of melting point: 173 to 174 °C for the first, 173 to 174 °C for the second.

Compared with CCC(CC)(NC(=O)c1c(C)nn2c1NC(c1ccccc1F)CC2(C)C)c1ccc(N(C)C)cc1 (stereo not drawn) (as salt: HCl) [Example 969, N-(1-(4-(dimethylamino)phenyl)-1-ethylpropyl)-5-(2-fluorophenyl)-2,7,7-trimethyl-4,5,6,7-tetrahydropyrazolo[1,5-a]pyrimidine-3-carboxamide], CCC(CC)(NC(=O)c1c(C)nn2c1N[C@H](c1ccccc1F)CC2(C)C)c1ccc(C)cc1 (as salt: HCl) [Example 1083, (5S)-N-(1-ethyl-1-(4-methylphenyl)propyl)-5-(2-fluorophenyl)-2,7,7-trimethyl-4,5,6,7-tetrahydropyrazolo[1,5-a]pyrimidine-3-carboxamide] is higher in melting point: 152 to 153 °C for the first, 203 to 204 °C for the second.

First: CCC(CC)(NC(=O)c1cnn2c1NC(c1ccc(C)cc1C)CC2(C)C)c1ccc(C)cc1 (stereo not drawn) (as salt: HCl) [Example 970, 5-(2,4-dimethylphenyl)-N-(1-ethyl-1-(4-methylphenyl)propyl)-7,7-dimethyl-4,5,6,7-tetrahydropyrazolo[1,5-a]pyrimidine-3-carboxamide]
Second: CCC(CC)(NC(=O)c1c(C)nn2c1NC(c1cccc(C)c1)CC2(C)C)c1ccc(C)cc1 (stereo not drawn) (as salt: HCl) [Example 974, N-(1-ethyl-1-(4-methylphenyl)propyl)-2,7,7-trimethyl-5-(3-methylphenyl)-4,5,6,7-tetrahydropyrazolo[1,5-a]pyrimidine-3-carboxamide]
The melting point of the first is higher: 150 to 151 °C for the first, 120 to 123 °C for the second.

Compared with CCC(CC)(NC(=O)c1c(C)nn2c1NC(c1ccc(F)cc1)CC2(C)C)c1ccc(C)cc1 (stereo not drawn) (as salt: HCl) [Example 971, N-(1-ethyl-1-(4-methylphenyl)propyl)-5-(4-fluorophenyl)-2,7,7-trimethyl-4,5,6,7-tetrahydropyrazolo[1,5-a]pyrimidine-3-carboxamide], CCC(CC)(NC(=O)c1c(C)nn2c1NC(c1cccc(F)c1)CC2(C)C)c1ccc(C)cc1 (stereo not drawn) (as salt: HCl) [Example 972, N-(1-ethyl-1-(4-methylphenyl)propyl)-5-(3-fluorophenyl)-2,7,7-trimethyl-4,5,6,7-tetrahydropyrazolo[1,5-a]pyrimidine-3-carboxamide] is lower in melting point: 166 to 169 °C for the first, 152 to 155 °C for the second.

First: CCC(CC)(NC(=O)c1c(C)nn2c1N[C@@H](c1ccccc1)CC2(C)C)c1ccc(Cl)cc1 (as salt: HCl) [Example 1043, (5R)-N-(1-(4-chlorophenyl)-1-ethylpropyl)-2,7,7-trimethyl-5-phenyl-4,5,6,7-tetrahydropyrazolo[1,5-a]pyrimidine-3-carboxamide]
Second: CCC(CC)(NC(=O)c1c(C)nn2c1N[C@@H](c1ccccc1)CC2(C)C)c1ccc(I)cc1 (as salt: HCl) [Example 1073, (5R)-N-(1-ethyl-1-(4-iodophenyl)propyl)-2,7,7-trimethyl-5-phenyl-4,5,6,7-tetrahydropyrazolo[1,5-a]pyrimidine-3-carboxamide]
The melting point of the first is higher: 193 to 194 °C for the first, 179 to 180 °C for the second.

First: CCc1ccc(C(CC)(CC)NC(=O)c2cnn3c2N[C@@H](c2ccccc2)CC3(C)C)cc1 (as salt: HCl) [Example 1051, (5R)-N-(1-ethyl-1-(4-ethylphenyl)propyl)-7,7-dimethyl-5-phenyl-4,5,6,7-tetrahydropyrazolo[1,5-a]pyrimidine-3-carboxamide]
Second: CCC(CC)(NC(=O)c1cnn2c1N[C@@H](c1ccccc1)CC2(C)C)c1ccc(CO)cc1 (as salt: HCl) [Example 1077, (5R)-N-(1-ethyl-1-(4-(hydroxymethyl)phenyl)propyl)-7,7-dimethyl-5-phenyl-4,5,6,7-tetrahydropyrazolo[1,5-a]pyrimidine-3-carboxamide]
The melting point of the first is lower: 149 to 150 °C for the first, 159 to 160 °C for the second.

First: CCC(CC)(NC(=O)c1cnn2c1N[C@@H](c1ccccc1)CC2(C)C)c1ccc(C(C)(C)C)cc1 (as salt: HCl) [Example 1052, (5R)-N-(1-(4-tert-butylphenyl)-1-ethylpropyl)-7,7-dimethyl-5-phenyl-4,5,6,7-tetrahydropyrazolo[1,5-a]pyrimidine-3-carboxamide]
Second: CCC(CC)(NC(=O)c1c(C)nn2c1N[C@@H](c1ccccc1)CC2(C)C)c1ccc(N(C)C)cc1 (as salt: HCl) [Example 1071, (5R)-N-(1-(4-(dimethylamino)phenyl)-1-ethylpropyl)-2,7,7-trimethyl-5-phenyl-4,5,6,7-tetrahydropyrazolo[1,5-a]pyrimidine-3-carboxamide]
The melting point of the first is lower: 139 to 140 °C for the first, 141 to 142 °C for the second.

First: CCCC(CC)(CC)NC(=O)c1c(C)nn2c1N[C@@H](c1ccccc1)CC2(C)C (as salt: HCl) [Example 1055, (5R)-N-(1,1-diethylbutyl)-2,7,7-trimethyl-5-phenyl-4,5,6,7-tetrahydropyrazolo[1,5-a]pyrimidine-3-carboxamide]
Second: CCCC(CC)(CC)NC(=O)c1cnn2c1N[C@@H](c1ccccc1)CC2(C)C (as salt: HCl) [Example 1072, (5R)-N-(1,1-diethylbutyl)-7,7-dimethyl-5-phenyl-4,5,6,7-tetrahydropyrazolo[1,5-a]pyrimidine-3-carboxamide]
The melting point of the first is lower: 176 to 177 °C for the first, 185 to 186 °C for the second.

First: CCC(CC)(NC(=O)c1c(C)nn2c1N[C@@H](c1ccccc1)CC2(C)C)c1cc(C)n(-c2ccccc2)n1 (as salt: HCl) [Example 1062, (5R)-N-(1-ethyl-1-(5-methyl-1-phenyl-1H-pyrazol-3-yl)propyl)-2,7,7-trimethyl-5-phenyl-4,5,6,7-tetrahydropyrazolo[1,5-a]pyrimidine-3-carboxamide]
Second: CCC(CC)(NC(=O)c1c(C)nn2c1N[C@@H](c1ccccc1)CC2(C)C)c1ccccc1F (as salt: HCl) [Example 1063, (5R)-N-(1-ethyl-1-(2-fluorophenyl)propyl)-2,7,7-trimethyl-5-phenyl-4,5,6,7-tetrahydropyrazolo[1,5-a]pyrimidine-3-carboxamide]
The melting point of the first is higher: 194 to 195 °C for the first, 180 to 182 °C for the second.

First: CCC(CC)(NC(=O)c1c(C)nn2c1N[C@@H](c1ccccc1)CC2(C)C)c1ccc(Cl)c(C)c1 (as salt: HCl) [Example 1068, (5R)-N-(1-(4-chloro-3-methylphenyl)-1-ethylpropyl)-2,7,7-trimethyl-5-phenyl-4,5,6,7-tetrahydropyrazolo[1,5-a]pyrimidine-3-carboxamide]
Second: CCC(CC)(NC(=O)c1c(C)nn2c1N[C@@H](c1ccccc1)CC2(C)C)c1ccc(C)c(Cl)c1 (as salt: HCl) [Example 1069, (5R)-N-(1-(3-chloro-4-methylphenyl)-1-ethylpropyl)-2,7,7-trimethyl-5-phenyl-4,5,6,7-tetrahydropyrazolo[1,5-a]pyrimidine-3-carboxamide]
The melting point of the first is higher: 150 to 151 °C for the first, 129 to 130 °C for the second.

First: CCOC(=O)c1ccc(C(CC)(CC)NC(=O)c2c(C)nn3c2N[C@@H](c2ccccc2)CC3(C)C)cc1 (as salt: HCl) [Example 1074, (5R)-ethyl 4-(1-ethyl-1-(((2,7,7-trimethyl-5-phenyl-4,5,6,7-tetrahydropyrazolo[1,5-a]pyrimidin-3-yl)carbonyl)amino)propyl) benzoate]
Second: CCC(CC)(NC(=O)c1c(C)nn2c1N[C@@H](c1ccccc1)CC2(C)C)c1ccc(CO)cc1 (as salt: HCl) [Example 1075, (5R)-N-(1-ethyl-1-(4-(hydroxymethyl)phenyl)propyl)-2,7,7-trimethyl-5-phenyl-4,5,6,7-tetrahydropyrazolo[1,5-a]pyrimidine-3-carboxamide]
The melting point of the first is lower: 125 to 126 °C for the first, 168 to 169 °C for the second.

First: CCc1ccc(C(CC)(CC)NC(=O)c2c(C)nn3c2N[C@@H](c2ccccc2F)CC3(C)C)cc1 (as salt: HCl) [Example 1089, (5R)-N-(1-ethyl-1-(4-ethylphenyl)propyl)-5-(2-fluorophenyl)-2,7,7-trimethyl-4,5,6,7-tetrahydropyrazolo[1,5-a]pyrimidine-3-carboxamide]
Second: CCC1(CC)C[C@@H](O)CN1C(=O)c1c(C)nn2c1N[C@@H](c1ccccc1)CC2(C)C (as salt: HCl) [Example 1098, (3R)-5,5-diethyl-1-(((5R)-2,7,7-trimethyl-5-phenyl-4,5,6,7-tetrahydropyrazolo[1,5-a]pyrimidin-3-yl)carbonyl)-3-pyrrolidinol]
The melting point of the first is lower: 138 to 139 °C for the first, 140 to 142 °C for the second.

For CCC1(CC)C[C@H](O)CN1C(=O)c1cnn2c1N[C@@H](c1ccccc1)CC2(C)C (as salt: HCl) [Example 1118, (3S)-1-(((5R)-7,7-dimethyl-5-phenyl-4,5,6,7-tetrahydropyrazolo[1,5-a]pyrimidin-3-yl)carbonyl)-5,5-diethyl-3-pyrrolidinol], the melting point was 247 to 249 °C.
